# In US7875621B2, “Substituted 2-alkyl quinazolinone derivatives as PARP inhibitors” (Janssen Pharmaceutica NV, priority 2004, dated 2011):
# Biological target: PARP-1 enzyme (Homo sapiens, UniProt P09874)
# Assay: In vitro scintillation proximity assay (SPA) for PARP-1 inhibitory activity
# Format: biochemical
# Conditions: not given
# Description: In Vitro Scintillation Proximity Assay (SPA) for PARP-1 Inhibitory Activity
# Compounds of the present invention were tested in an in vitro assay based on SPA technology (proprietary to Amersham Pharmacia Biotech).
# In principle, the assay relies upon the well established SPA technology for the detection of poly(ADP-ribosyl)ation of biotinylated target proteins, i.e histones. This ribosylation is induced using nicked DNA activated PARP-1 enzyme and [^3H]-nicotinamide adenine dinucleotide ([^3H]-NAD^+) as ADP-ribosyl donor.
# As inducer of PARP-1 enzyme activity, nicked DNA was prepared. For this, 25 mg of DNA (supplier: Sigma) was dissolved in 25 ml DNAse buffer (10 mM Tris-HCl, pH 7.4; 0.5 mg/ml Bovine Serum Albumine (BSA); 5 mM MgCl2.6H2O and 1 mM KCl) to which 50 μl DNAse solution (1 mg/ml in 0.15 M NaCl) was added. After an incubation of 90 min. at 37° C., the reaction was terminated by adding 1.45 g NaCl, followed by a further incubation at 58° C. for 15 min. The reaction mixture was cooled on ice and dialysed at 4° C. for respectively 1.5 and 2 hours against 1.5 l of 0.2 M KCl, and twice against 1.5 l of 0.01 M KCl for 1.5 and 2 h respectively. The mixture was aliquoted and stored at −20° C. Histones (1 mg/ml, type II-A, supplier: Sigma) were biotinylated using the biotinylation kit of Amersham and stored aliquoted at −20° C. A stock solution of 100 mg/ml SPA poly(vinyl toluene) (PVT) beads (supplier: Amersham) was made in PBS. A stock solution of [^3H]-NAD^+ was made by adding 120 μl of [^3H]-NAD^+ (0.1 mCi/ml, supplier: NEN) to 6 ml incubation buffer (50 mM Tris/HCl, pH 8; 0.2 mM DTT; 4 mM MgCl2). A solution of 4 mM NAD^+ (supplier: Roche) was made in incubation buffer (from a 100 mM stock solution in water stored at −20° C.). The PARP-1 enzyme was produced using art known techniques, i.e. cloning and expression of the protein starting from human liver cDNA. Information concerning the used protein sequence of the PARP-1 enzyme including literature references can be found in the Swiss-Prot database under primary accession number P09874. Biotinylated histones and PVT-SPA beads were mixed and pre-incubated for 30 min. at room temperature. PARP-1 enzyme (concentration was lot dependent) was mixed with the nicked DNA and the mixture was pre-incubated for 30 min. at 4° C. Equal parts of this histones/PVT-SPA beads solution and PARP-1 enzyme/DNA solution were mixed and 75 μl of this mixture together with 1 μl of compound in DMSO and 25 μl of [^3H]-NAD^+ was added per well into a 96-well microtiterplate. The final concentrations in the incubation mixture were 2 μg/ml for the biotinylated histones, 2 mg/ml for the PVT-SPA beads, 2 μg/ml for the nicked DNA and between 5-10 μg/ml for the PARP-1 enzyme. After incubation of the mixture for 15 min. at room temperature, the reaction was terminated by adding 100 μl of 4 mM NAD in incubation buffer (final concentration 2 mM) and plates were mixed.
# The beads were allowed to sediment for at least 15 min. and plates transferred to a TopCountNXT™ (Packard) for scintillation counting, values were expressed as counts per minute (cpm). For each experiment, controls (containing PARP-1 enzyme and DMSO without compound), a blank incubation (containing DMSO but no PARP-1 enzyme or compound) and samples (containing PARP-1 enzyme and compound dissolved in DMSO) were run in parallel. All compounds tested were dissolved and eventually further diluted in DMSO. […] In each test, the blank value was subtracted from both the control and the sample values. The control sample represented maximal PARP-1 enzyme activity. For each sample, the amount of cpm was expressed as a percentage of the mean cpm value of the controls. When appropriate, IC50-values (concentration of the drug, needed to reduce the PARP-1 enzyme activity to 50% of the control) were computed using linear interpolation between the experimental points just above and below the 50% level. […]
# Sequence of PARP-1 enzyme (P09874 whole entry): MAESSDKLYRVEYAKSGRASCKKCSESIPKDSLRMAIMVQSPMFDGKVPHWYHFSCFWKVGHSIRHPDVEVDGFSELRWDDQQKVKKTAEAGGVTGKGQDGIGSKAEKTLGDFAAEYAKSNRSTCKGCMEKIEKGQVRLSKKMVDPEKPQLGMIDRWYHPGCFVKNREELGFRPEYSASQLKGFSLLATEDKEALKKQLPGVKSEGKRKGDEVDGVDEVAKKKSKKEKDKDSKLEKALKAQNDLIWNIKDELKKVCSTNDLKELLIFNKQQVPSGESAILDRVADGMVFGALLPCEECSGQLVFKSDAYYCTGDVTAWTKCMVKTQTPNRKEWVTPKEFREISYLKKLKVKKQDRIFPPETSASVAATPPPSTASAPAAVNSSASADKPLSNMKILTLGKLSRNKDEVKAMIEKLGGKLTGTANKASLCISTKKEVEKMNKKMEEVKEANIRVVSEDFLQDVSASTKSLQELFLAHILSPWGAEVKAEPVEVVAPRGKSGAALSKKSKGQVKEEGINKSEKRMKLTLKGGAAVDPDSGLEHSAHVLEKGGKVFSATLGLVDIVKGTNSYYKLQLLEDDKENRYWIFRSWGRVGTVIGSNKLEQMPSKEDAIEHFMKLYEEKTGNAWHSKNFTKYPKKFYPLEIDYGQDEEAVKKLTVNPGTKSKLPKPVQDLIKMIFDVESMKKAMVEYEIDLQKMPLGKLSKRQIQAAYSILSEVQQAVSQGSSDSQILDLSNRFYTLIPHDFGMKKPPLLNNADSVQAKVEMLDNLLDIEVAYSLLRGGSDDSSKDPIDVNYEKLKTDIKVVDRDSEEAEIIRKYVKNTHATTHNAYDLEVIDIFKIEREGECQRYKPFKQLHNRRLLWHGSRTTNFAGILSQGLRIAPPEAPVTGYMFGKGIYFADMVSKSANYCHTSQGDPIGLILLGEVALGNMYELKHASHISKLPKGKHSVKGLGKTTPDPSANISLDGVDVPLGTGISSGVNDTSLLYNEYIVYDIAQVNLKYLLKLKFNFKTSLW
row,SMILES,IC50
1,O=C1NC(CCN2CCC(n3c(=O)[nH]c4ccccc43)CC2)Nc2ccccc21 (stereo not drawn) [Compound 13],318 nM

# Same assay, conditions: [3H]-NAD+, nicked DNA, biotinylated histones; read-out: in vitro SPA assay PARP-1 pIC50 (converted)
row,SMILES,IC50
1,O=C1NCN(c2ccccc2)C12CCN(CCCc1nc3ccccc3c(=O)[nH]1)CC2 [Compound 2],385 nM
2,O=C(CC1CCN(CCc2nc3ccccc3c(=O)[nH]2)CC1)c1ccc(F)cc1 [Compound 3],560 nM
3,NC(=O)C1(c2ccccc2)CCN(CCCc2nc3ccccc3c(=O)[nH]2)CC1 [Compound 4],20 nM
4,NC(=O)C1(c2ccccc2)CCN(CCCC2NC(=O)c3ccccc3N2)CC1 (stereo not drawn) [Compound 5],22.9 nM
5,O=C1NC(CCN2CCC3(CC2)C(=O)NCN3c2ccccc2)Nc2ccccc21 (stereo not drawn) [Compound 6],178 nM
6,O=C1NC(CCCN2CCC(n3c(=O)[nH]c4ccccc43)CC2)Nc2ccccc21 (stereo not drawn) [Compound 7],585 nM
7,O=C(NC1CCN(CCCC2NC(=O)c3ccccc3N2)CC1)c1ccccc1 (stereo not drawn) [Compound 8],236 nM

# The remaining lines, values ahead:
row,IC50,SMILES
1,611 nM,O=C(c1ccc(F)cc1)C1CCN(CCc2nc3ccccc3c(=O)[nH]2)CC1 [Compound 9]
2,188 nM,NC(=O)C1(N2CCOCC2)CCN(CCCc2nc3ccccc3c(=O)[nH]2)CC1 [Compound 11]
3,117 nM,O=C(NC1CCN(CCCc2nc3ccccc3c(=O)[nH]2)CC1)c1ccccc1 [Compound 12]
4,58.6 nM,O=C(c1ccc(F)cc1)C1CCN(CCCc2nc3ccccc3c(=O)[nH]2)CC1 [Compound 14]
